Experimental data taken from patent publication US20250289786A1, “CHLORINATED MONOCARBONYL CURCUMIN COMPOUNDS, PREPARATION METHOD, AND APPLICATION” (Southwest Medical University, priority 2024, published 2025).

How the values were obtained:
[1] = test system: PC12 cells; experiment: Inhibition of corticosterone (CORT)-induced PC12 cell damage; format: cell-based, rat; conditions: 3.75-60 μM drug with 514.6 μM CORT, 24 h, in words
[2] = test system: PC12 cells; experiment: Inhibition of H2O2-induced oxidative damage in PC12 cells; format: cell-based, rat
Protocol: After 24 hours of incubation in the incubator, the relative proliferation rates of the cells were calculated according to the method under Section 2.1.

[3] = test system: CUMS depression model mice; experiment: Open field test in CUMS depression model mice; format: in vivo, C57BL/6J mice; conditions: 10 mg/kg oral once a day, 28 days; model 327.22±161.39 cm
Description: (§1) After one week of adaptive feeding, the newly purchased mice were divided into a blank group and CUMS model group. The mice in the blank group were not subjected to behavioral intervention and were fed normally. Mice in the model group were given 1-2 unpredictable behavioral stimuli every day. […] When the same stimulation is continuous, the stimulation method is changed to ensure that the same stimulation is not continuous, and the model construction period is 42 days.

[4] = test system: CUMS depression model mice; experiment: Sucrose preference test in CUMS depression model mice; format: in vivo, C57BL/6J mice; conditions: 10 mg/kg oral once a day, 14th day, in words
Description: as §1

[5] = test system: Nrf2, HO-1, BDNF, and TrkB in the hippocampus; experiment: Western blot of hippocampal proteins in CUMS depression model mice; format: in vivo; conditions: in words
[6] = test system: CUMS depression model mice; experiment: Forced swimming test in CUMS depression model mice; format: in vivo, C57BL/6J mice; conditions: 10 mg/kg oral once a day
Description: as §1

[7] = ABTS free radical capture ability; format: biochemical; conditions: 20 min reaction in the dark
Protocol: 66.2 mg of K2S2O8 was weighed and placed in a 100 mL volumetric flask, pure water was added to the scale line to prepare a 2.45 mmol/L K2S2O8 solution. 192 mg of ABTS was accurately weighed and placed in a 25 mL volumetric flask, and the newly prepared K2S2O8 solution was added for dissolving and constant volume dilution, after standing in the dark for 20 h, the ABTS mother liquor was obtained. Before use, to make the measured value more accurate, the ABTS mother liquor needs to be diluted with a PBS solution of pH7.4 until the absorbance range of the ABTS working solution at 734 nm is 0.70±0.02.
Drug concentration screening: To avoid the complete removal of free radicals by excessive drug concentration and the inability to compare the ability to capture ABTS free radicals, a preliminary screening of drug concentration is required before the formal test. A gradient concentration of compound solution was prepared, and a gradient concentration of Vit C solution was prepared as a positive control. A total of 450 μL of ABTS working solution was accurately absorbed into a 1.5 mL EP tube, and 150 μL of the gradient solution of each group of drugs was added, after 20 min of reaction in the dark, 150 μL of the reaction solution was taken and placed in a 96-well plate, the absorbance was measured by a microplate reader. Three duplicate wells were set for each concentration, and the drug concentration with absorbance between 0.2-0.7 was selected for subsequent determination.
Determination operation: After the drug concentration screening was completed, 7 concentration gradient groups were set within this concentration range. A total of 450 μL of ABTS working solution was accurately absorbed into a 1.5 mL EP tube, and 150 μL of the gradient solution of each group of drugs was added. After 20 min of reaction in the dark, 150 μL of the reaction solution was taken and placed in a 96-well plate, the absorbance was measured by a microplate reader. Three duplicate wells were set for each concentration, the positive control group was a gradient solution of Vit C, and the blank control group was an equal volume of anhydrous ethanol.

[8] = Solubility detection of CAK01-CAK07; format: physicochemical
Description: The chlorinated monocarbonyl curcumin compounds CAK01-CAK07 prepared under the conditions of Example 1 were taken for nuclear magnetic resonance, mass spectrometry, solubility, and melting point detection.

[9] = test system: PC12 cells; experiment: MTT toxicity (safety evaluation) on PC12 nerve cells; format: cell-based
Protocol: The toxicity of each drug to PC12 cells was determined by MTT assay. The principle of the MTT colorimetric method: there is succinate dehydrogenase in the mitochondria of living cells, which can make exogenous MTT become blue-purple crystal formazan insoluble in water, this phenomenon cannot be observed in dead cells. The blue-purple crystal formazan can be dissolved by DMSO, and the absorbance value is measured by a microplate reader at a wavelength of 490 nm, which in turn reflects the number of living cells. […] The operation method is as follows:
The cells were resuscitated with DMEM high glucose medium containing 10% fetal bovine serum and cultured in a 5% CO2 cell incubator at 37° C., when the cells grew to the logarithmic growth phase, they were inoculated into a 96-well plate and cultured for 24 hours, each well was added with 100 μL of each compound solution at the corresponding gradient concentration (60, 30, 15, 7.5, 3.75 μM), after incubation in the incubator for 24 h or 48 h, 20 μL of MTT was added to continue incubation for 4 h, the supernatant was discarded and 150 μL of DMSO was added to dissolve the blue-purple crystals, after shaking for 10 min, the cell viability was detected by a microplate reader, and classified according to the cytotoxicity standard. The relevant calculation formula is as follows: […]

## CNCCC(Oc1ccc(C(F)(F)F)cc1)c1ccccc1 (centres unmarked) [Flu, fluoxetine, reference compound]
[1]
  effect on viability of CORT-damaged PC12 cells: did not show the effect of restoring CORT-damaged cells
[2]; 7.5 μM drug with 585.8 μM H2O2, 24 h
  cell survival rate: 41.92±0.66%
[3]
  overall activity distance in the open field test: 705.43±159.14 cm
[4]
  sucrose preference rate: failed to significantly increase the sucrose preference rate
[5]
  expression of Nrf2, HO-1, BDNF and TrkB: also increased
[6]; 14th day, in words
  forced swimming test, depressive symptoms / immobility time: did not show significant improvement in depressive symptoms
[6]; 28 days
  immobility time in the forced swimming test: 130.42 ± 59.96 s

## COc1cc(/C=C2\CN(C(C)C)C/C(=C\c3cc(Cl)c(O)c(OC)c3)C2=O)cc(Cl)c1O [CAK05, 3,5-bis ((E)-3-chloro-4-hydroxy-5-methoxybenzylidene)-1-isopropylpiperidin-4-one]
[1]
  effect on viability of CORT-damaged PC12 cells: did not show the potential to restore cell viability
[7]
  IC50 values of ABTS captured: 369.1 µg/mL
[2]; 3.75-60 μM drug, 24 h, in words
  effect on survival of H2O2-damaged PC12 cells: failed to show the potential to restore cell viability
[8]
  solubility: 0.14 mg/100 g
[9]; 3.75-60 μM, 24 h and 48 h, in words
  cytotoxicity to PC12 cells: a great influence on the activity of PC12 cells
[9]; PC12, 3.75 μM
  Rank (cytotoxicity standard) 24 h: 1
  Relative growth rate (%) 24 h: 89.59 ± 2.85%
  Rank (cytotoxicity standard) 48 h: 2
  Relative growth rate (%) 48 h: 61.38±0.91%
[9]; PC12, 7.5 μM
  Rank (cytotoxicity standard) 24 h: 2
  Relative growth rate (%) 24 h: 68.98±2.27%
  Rank (cytotoxicity standard) 48 h: 2
  Relative growth rate (%) 48 h: 51.45 ± 1.44%
[9]; PC12, 15 μM
  Rank (cytotoxicity standard) 24 h: 2
  Relative growth rate (%) 24 h: 62.32 ± 3.54%
  Rank (cytotoxicity standard) 48 h: 3
  Relative growth rate (%) 48 h: 22.26 ± 1.14%
[9]; PC12, 30 μM
  Rank (cytotoxicity standard) 24 h: 2
  Relative growth rate (%) 24 h: 56.50 ± 1.99%
  Rank (cytotoxicity standard) 48 h: 4
  Relative growth rate (%) 48 h: 15.43 ± 0.32%
[9]; PC12, 60 μM
  Rank (cytotoxicity standard) 24 h: 3
  Relative growth rate (%) 24 h: 41.84 ± 0.40%
  Rank (cytotoxicity standard) 48 h: 4
  Relative growth rate (%) 48 h: 11.06 ± 0.87%
